Experimental findings from patent publication US12064479B2, “Lipid nanoparticles for delivery of nucleic acids and methods of use thereof” (Akagera Medicines, Inc., priority 2022, dated 2024) are described below.

What all share (assay type): physicochemical
Data set [1] can be described thus: Apparent solubility of phosphatidylserine salts in ethanol (shake flask). The following applies: for Solubility, mM phosphatidylserine: 100% ethanol, room temperature, 24 hours, N=3. As for the experimental part:
Apparent solubilities of phosphatidylserine salts in ethanol were determined by shake flask technique. Sodium and ammonium salts of phosphatidylserines in the powder form were obtained from Avanti Polar Lipids (Alabama, USA). Aliquots of phosphatidylserine salt powder were placed in 12×75 borosilicate glass tubes in triplicate. Three mL of 200 proof ethanol (catalog number E-7023, MilliporeSigma, USA) were added, the tubes were closed with polyethylene snap caps, agitated using vortex mixer for 10-15 s to obtain uniform suspensions, and placed in a horizontal position on a rocking platform at room temperature (20-22° C.) overnight. The ambient temperature at the end of incubation was 20.4-20.9° C. After 24 hours incubation, the suspensions were visually checked for the presence of a solid phase, allowed to settle under gravity, and the supernatant solutions were passed through a 0.2-μm PTFE syringe membrane filters. The first 0.5 ml of the filtrate was discarded, the next 1 ml was collected, and phosphatidylserine in the filtrates was quantified by phospholipid phosphate assay as follows: 20 μL aliquots of the filtrate were taken in triplicate into glass tubes, ethanol was evaporated in a stream of argon at 70° C., and the residue was digested in a mixture of 60 μL concentrated sulfuric acid and 20 μL 30% hydrogen peroxide for 10 min at 180-190° C. The digested samples were diluted with 1 mL of deionized water, 20 μL of 10% sodium sulfite was added to destroy any residual peroxide, and the samples were incubated on a boiling water bath for 15 min to hydrolyze any condensed phosphate species. The samples were chilled down to room temperature, mixed with 0.2 mL of 2% (w/w) ammonium molybdate solution and 20 μL of 10% (w/w) ascorbic acid solution, incubated on a boiling water bath for 10 min, and chilled down in a water bath at room temperature. The phosphate concentration was determined from the optical density of the formed blue phosphomolybdic acid at 825 nm using five-point standard curve from concurrently run standards prepared from the NIST-traceable commercial phosphate standard solution diluted to cover the range of 0-2 mM phosphate (coefficient of determination R^2>0.9999). Solubility of phosphatidylserine salts was expressed in molarity units of phosphatidylserine (Table 40). The data are average f SD (N=3).

Data set [2] can be described thus: Stability of ionizable cationic lipids under accelerated oxidation (H2O2/Fe(III)Cl, UHPLC-CAD), Example 29. The settings on record: for % of main lipid peak to To, 24 h.: individual lipids 0.5 mM; for % of main lipid peak to To, 24 h. / % of main lipid peak to To, 48 h. / % of main lipid peak to To, 72 h.: 1% H2O2/100 μM Fe(III)Cl, 37° C.; for % of main lipid peak to To, 48 h. / % of main lipid peak to To, 72 h.: individual lipids. As for the experimental part:
Ethanol (Sigma-Aldrich, cat #459836) stocks of 1 mM cationic lipids (KC3, KC3-OA, KC3-PA, KC3-C17 and KC3-C17(C8:1)) were prepared and stored at −20° C. Prior to the experiment, 75 μl of a lipid stock was mixed with 75 μl of ultra-pure water (Rx Biosciences, cat #P01-UPW02-1000) to make 0.5 mM of cationic lipids and 5 mM of linoleic acid respectively. A combined stock in water of 10% H2O2 (Sigma-Aldrich, cat #H1009) and 1 mM of Fe(III)Cl (Sigma-Aldrich, cat #372870) was freshly by prepared prior to the experiment. To make 1% final concentration of H2O2 and 100 μM Fe(III)Cl, 15 μl of 10% H2O2/1 mM Fe(III)Cl stock was added to 135 μl of individual lipids The liposomes and individual lipids were incubated with H2O2/Fe(III)Cl at 37° C. and then 5 μl from each sample was taken at different time points (0, 24, 48, 72 and 96 hours) and dissolved in 90 μl of MeOH for HPLC analysis. Degradation of the main lipid peak was analyzed using Thermo Scientific Vanquish Flex UHPLC occupied with Charged Aerosol Detector (CAD) and Phenomenex™ Kinetex C8 column (L=150 mm, D=2.1 mm, Particle Size=1.7 μm, 100 A).
The data are presented as a percentage of the main lipid peak measured at different time points relative to the lipid peak measured at time zero.

Data set [3] in a line: Oxidative stability of ICLs and liposomes under accelerated oxidation (H2O2/Fe(III)Cl, UHPLC-CAD), Example 18. The following applies: ICL lipid suspensions, 1% H2O2/100 μM Fe(III)Cl, 37° C. As for the experimental part: Individual lipid stocks (10 mM) were prepared in ethanol and stored at −20° C. […] Liposomal formulations based on AKG-UO-1 and O-11769 ionizable cationic lipids (Table 12) were prepared by combining lipid mixtures of desired composition in 1 mL ethanol with 3 mL 6.25 mM sodium acetate, pH 5.0 at 6 mL/min on a NanoAssemblr (Precision Nanosystems). 3.6 mL of the mixture was retained, while the initial 0.35 mL of the mixture and final 0.05 mL were discarded. Ethanol was removed by buffer exchange into PBS, pH 7.4 by concentrating each liposome preparation using an Aminon-Ultra 4 centrifugal concentrator at 500 g for 10 min at 4° C. and diluting back to the original volume with PBS. This cycle was repeated multiple times until the ethanol concentration was <1%. Finally, liposomes were sterile filtered through 0.2 μm PES (Nalgene) syringe filters and size measured by a ZetaSizer (Malvern).
Aliquots of the liposomal formulations were stored at −80° C. and thawed before the experiment. A combined stock in water of 10% H2O2 (Sigma-Aldrich, cat #H1009) and 1 mM of Fe(III)Cl (Sigma-Aldrich, cat #372870) was freshly prepared prior to the treatment. To make 1% final concentration of H2O2 and 100 μM Fe(III)Cl, 10 μl of 10% H2O2/1 mM Fe(III)Cl stock was added to 90 μl of both liposomal formulations and individual lipids The liposomes and individual lipids were incubated with H2O2/Fe(III)Cl at 37° C. and then 5 μl from each sample was taken at different time points (0, 3, 24, 48 and 72 hours) and dissolved in 90 μl of MeOH for HPLC analysis. Degradation of the main lipid peak was analyzed using Thermo Scientific Vanquish Flex UHPLC occupied with Charged Aerosol Detector (CAD) and Thermo Scientific Accucore™ C18+ UHPLC column (L=50 mm, D=2.1 mm, Particle Size=1.5 μm).
The data are presented as a percentage of the main lipid pea measure at different time points relative to the lipid peak measured at time zero.

Regarding `CCCCCCCCCCCCCCCC(=O)OC[C@H](COP(=O)(O)OC[C@H](N)C(=O)O)OC(=O)CCCCCCCCCCCCCCC.N` [DPPS ammonium], the “Solubility, mM phosphatidylserine” value in data set [1] is 0.865 ± 0.060 mM. The “ethanol solubility” value in data set [1] (vs DSPS ammonium and the sodium salts) is on record as “several-fold higher ethanol solubility”.

On to `CCCCCCCC/C=C\CCCCCCCC1(CCCCCCC/C=C\CCCCCCCC)OC[C@H](CCCN(C)C)O1` [KC3-17 (C8:1), 3-((S)-2,2-di((Z)-heptadec-8-en-1-yl)-1,3-dioxolan-4-yl)-N,N-dimethylpropan-1-amine], for which, in data set [2], the “% of main lipid peak to To, 24 h.” value came to 66.1 ± 0.6%; the “% of main lipid peak to To, 48 h.” value came to 58.4 ± 1.5%; the “% of main lipid peak to To, 72 h.” value is 45.9 ± 4.7%.

For the molecule `CCCCCCCCCCCCCCCC(=O)OC[C@H](COP(=O)(O)OC[C@H](N)C(=O)[O-])OC(=O)CCCCCCCCCCCCCCC.[Na+]` [DPPS sodium], the “Solubility, mM phosphatidylserine” value in data set [1] stood at 0.201 ± 0.004 mM.

For `CCCCCCCCCCCCCCCCCC(=O)OC[C@H](COP(=O)(O)OC[C@H](N)C(=O)O)OC(=O)CCCCCCCCCCCCCCCCC.N` [DSPS ammonium], the “Solubility, mM phosphatidylserine” value in data set [1] worked out at 0.034 ± 0.004 mM.

Consider `CCCCCCCCCCCCCCCCCC(=O)OC[C@H](COP(=O)(O)OC[C@H](N)C(=O)[O-])OC(=O)CCCCCCCCCCCCCCCCC.[Na+]` [DSPS sodium], for which, in data set [1], the “Solubility, mM phosphatidylserine” value was 0.111 ± 0.009 mM.

For `CCCCCC/C=C\CCCCCCCCC1(CCCCCCCC/C=C\CCCCCC)OC[C@H](CCCN(C)C)O1` [KC3-PA, 3-((S)-2,2-di((Z)-hexadec-9-en-1-yl)-1,3-dioxolan-4-yl)-N,N-dimethylpropan-1-amine], in data set [2], the “% of main lipid peak to To, 24 h.” value was 62.7 ± 0.1%; the “% of main lipid peak to To, 48 h.” value came out at 59.2 ± 0.8%; the “% of main lipid peak to To, 72 h.” value worked out at 60.2 ± 0.6%.

For the molecule `CCCCC/C=C\CCCC/C=C\CCCCC(=O)OC[C@H](CCN(C)CCO)OC(=O)CCCC/C=C\CCCC/C=C\CCCCC` [UO-6], in data set [3], the “% of parent lipid peak at time 0, 24 h” value is reported as 58 ± 0.8%; the “% of parent lipid peak at time 0, 48 h” value stood at 32 ± 1.3%; the “% of parent lipid peak at time 0, 72 h” value is reported as 22 ± 1.8%.

For the molecule `CCCCC/C=C\CCCC/C=C\CCCCC(=O)OC[C@H](CCCN(C)C)OC(=O)CCCC/C=C\CCCC/C=C\CCCCC` [UO-7], in data set [3], the “% of parent lipid peak at time 0, 24 h” value was 80 ± 1.7%; the “% of parent lipid peak at time 0, 48 h” value came to 71 ± 0.8%; the “% of parent lipid peak at time 0, 72 h” value worked out at 62 ± 1.0%.

Turning to `CCCCCCCC/C=C\CCCCCCCCC1(CCCCCCCC/C=C\CCCCCCCC)OC[C@H](CCCN(C)C)O1` [KC3-OA, 3-((S)-2,2-di((Z)-octadec-9-en-1-yl)-1,3-dioxolan-4-yl)-N,N-dimethylpropan-1-amine], in data set [2], the “% of main lipid peak to To, 24 h.” value is 88.9 ± 0.5%; the “% of main lipid peak to To, 48 h.” value was 84.6 ± 0.9%; the “% of main lipid peak to To, 72 h.” value is recorded as 79.0 ± 0.1%.

For the molecule `CCCCCCCCCCCCCCCCCC1(CCCCCCCCCCCCCCCCC)OC[C@H](CCCN(C)C)O1` [KC3-17, (S)-3-(2,2-diheptadecyl-1,3-dioxolan-4-yl)-N,N-dimethylpropan-1-amine], in data set [2], the “% of main lipid peak to To, 24 h.” value amounted to 92.9 ± 0.3%; the “% of main lipid peak to To, 48 h.” value is 91.8 ± 1.2%; the “% of main lipid peak to To, 72 h.” value was 90.2 ± 1.2%.

Take `CCCCC/C=C\C/C=C\CCCCCCCCC1(CCCCCCCC/C=C\C/C=C\CCCCC)OCC(CCCN(C)C)O1` (stereo not drawn) [KC3, reference compound]: in data set [2], the “% of main lipid peak to To, 24 h.” value is 11.2 ± 1.0%; the “% of main lipid peak to To, 48 h.” value amounted to 10.5 ± 0.5%; the “% of main lipid peak to To, 72 h.” value worked out at 0 ± 0%. For the same molecule, the “degradation under forced oxidation with H2O2” value in data set [2] (relative to other cationic lipids, FIG. 18) is “fastest degradation”.
